Laboratory results taken from ChEMBL document CHEMBL1909046, “DrugMatrix in vitro pharmacology data”.

Experiments:
[1] = target: cGMP-specific 3',5'-cyclic phosphodiesterase (Homo sapiens, UniProt O76074); test: DRUGMATRIX: Phosphodiesterase PDE5 enzyme inhibition (substrate: [3H]cGMP + cGMP); assay type: tissue-based; settings: platelet; Not Active = under 50% inhibition at 10 µM
[2] = target: Sigma non-opioid intracellular receptor 1 (Homo sapiens, UniProt Q99720); test: DRUGMATRIX: Sigma1 radioligand binding (ligand: [3H] Haloperidol); assay type: cell membranes, Jurkat, Membrane; settings: jurkat; Not Active = under 50% inhibition at 10 µM
Chain of Sigma non-opioid intracellular receptor 1 (Q99720 whole entry): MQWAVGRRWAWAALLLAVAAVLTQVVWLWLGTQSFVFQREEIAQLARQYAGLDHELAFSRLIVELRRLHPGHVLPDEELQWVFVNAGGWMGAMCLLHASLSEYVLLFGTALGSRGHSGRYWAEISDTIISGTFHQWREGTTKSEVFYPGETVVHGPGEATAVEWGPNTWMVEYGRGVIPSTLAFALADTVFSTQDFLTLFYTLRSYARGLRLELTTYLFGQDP

[3] = target: T1, Muscarinic acetylcholine receptor M2 (Homo sapiens, UniProt P08172); assay type: cell membranes, CHO-K1, Membrane; settings: cho-k1; also: in other assays of this panel Not Active means under 50% inhibition at 10 µM
T1 sequence (P08172 whole entry): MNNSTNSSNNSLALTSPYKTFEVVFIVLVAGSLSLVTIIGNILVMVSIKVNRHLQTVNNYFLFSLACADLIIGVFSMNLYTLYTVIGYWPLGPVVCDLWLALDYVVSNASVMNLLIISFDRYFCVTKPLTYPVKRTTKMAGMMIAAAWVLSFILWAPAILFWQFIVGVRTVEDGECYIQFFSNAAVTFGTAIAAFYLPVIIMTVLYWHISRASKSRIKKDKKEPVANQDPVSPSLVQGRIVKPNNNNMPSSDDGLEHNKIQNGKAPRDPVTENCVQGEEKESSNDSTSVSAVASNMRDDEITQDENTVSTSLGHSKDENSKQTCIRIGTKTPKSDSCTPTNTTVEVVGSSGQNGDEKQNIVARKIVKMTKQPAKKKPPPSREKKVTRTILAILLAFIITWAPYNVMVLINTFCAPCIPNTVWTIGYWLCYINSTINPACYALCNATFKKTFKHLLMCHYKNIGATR

[4] = target: T2, C-X-C chemokine receptor type 1 (Homo sapiens, UniProt P25024); also: in other assays of this panel Not Active means under 50% inhibition at 10 µM
T2 sequence (P25024 whole entry): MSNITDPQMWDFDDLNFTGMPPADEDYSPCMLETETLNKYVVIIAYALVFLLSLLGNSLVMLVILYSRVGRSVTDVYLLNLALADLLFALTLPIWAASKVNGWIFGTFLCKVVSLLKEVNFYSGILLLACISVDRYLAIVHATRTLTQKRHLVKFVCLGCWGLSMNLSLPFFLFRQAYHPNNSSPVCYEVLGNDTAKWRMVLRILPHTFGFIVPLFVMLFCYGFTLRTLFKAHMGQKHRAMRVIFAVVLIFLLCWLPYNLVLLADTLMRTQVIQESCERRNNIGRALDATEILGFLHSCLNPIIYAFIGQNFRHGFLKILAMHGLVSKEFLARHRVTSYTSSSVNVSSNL

Adenosine receptor A2a = Adenosine receptor A2a (Homo sapiens, UniProt P29274); test: DRUGMATRIX: Adenosine A2A radioligand binding (ligand: […]); assay type: cell membranes, Membrane; settings: hek293; Not Active = under 50% inhibition at 10 µM
Chain of Adenosine receptor A2a (P29274 whole entry): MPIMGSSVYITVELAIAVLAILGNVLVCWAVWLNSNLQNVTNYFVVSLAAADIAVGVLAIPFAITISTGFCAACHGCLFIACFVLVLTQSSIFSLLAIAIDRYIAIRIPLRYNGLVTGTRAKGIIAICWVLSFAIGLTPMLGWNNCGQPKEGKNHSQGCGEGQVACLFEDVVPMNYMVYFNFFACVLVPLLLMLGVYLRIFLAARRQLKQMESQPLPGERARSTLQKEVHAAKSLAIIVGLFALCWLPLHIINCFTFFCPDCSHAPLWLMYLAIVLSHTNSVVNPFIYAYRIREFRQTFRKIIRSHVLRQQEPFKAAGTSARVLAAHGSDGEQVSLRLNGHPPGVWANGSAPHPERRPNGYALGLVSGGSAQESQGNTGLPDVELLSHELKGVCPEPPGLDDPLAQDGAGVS

[5] = target: Epidermal growth factor receptor (Homo sapiens, UniProt P00533); test: DRUGMATRIX: Protein Tyrosine Kinase, EGF Receptor enzyme inhibition (substrate: Poly(Glu:Tyr)); assay type: cell-based, Insect cells; settings: insect cells; Not Active = under 50% inhibition at 10 µM
Chain of Epidermal growth factor receptor (P00533 whole entry): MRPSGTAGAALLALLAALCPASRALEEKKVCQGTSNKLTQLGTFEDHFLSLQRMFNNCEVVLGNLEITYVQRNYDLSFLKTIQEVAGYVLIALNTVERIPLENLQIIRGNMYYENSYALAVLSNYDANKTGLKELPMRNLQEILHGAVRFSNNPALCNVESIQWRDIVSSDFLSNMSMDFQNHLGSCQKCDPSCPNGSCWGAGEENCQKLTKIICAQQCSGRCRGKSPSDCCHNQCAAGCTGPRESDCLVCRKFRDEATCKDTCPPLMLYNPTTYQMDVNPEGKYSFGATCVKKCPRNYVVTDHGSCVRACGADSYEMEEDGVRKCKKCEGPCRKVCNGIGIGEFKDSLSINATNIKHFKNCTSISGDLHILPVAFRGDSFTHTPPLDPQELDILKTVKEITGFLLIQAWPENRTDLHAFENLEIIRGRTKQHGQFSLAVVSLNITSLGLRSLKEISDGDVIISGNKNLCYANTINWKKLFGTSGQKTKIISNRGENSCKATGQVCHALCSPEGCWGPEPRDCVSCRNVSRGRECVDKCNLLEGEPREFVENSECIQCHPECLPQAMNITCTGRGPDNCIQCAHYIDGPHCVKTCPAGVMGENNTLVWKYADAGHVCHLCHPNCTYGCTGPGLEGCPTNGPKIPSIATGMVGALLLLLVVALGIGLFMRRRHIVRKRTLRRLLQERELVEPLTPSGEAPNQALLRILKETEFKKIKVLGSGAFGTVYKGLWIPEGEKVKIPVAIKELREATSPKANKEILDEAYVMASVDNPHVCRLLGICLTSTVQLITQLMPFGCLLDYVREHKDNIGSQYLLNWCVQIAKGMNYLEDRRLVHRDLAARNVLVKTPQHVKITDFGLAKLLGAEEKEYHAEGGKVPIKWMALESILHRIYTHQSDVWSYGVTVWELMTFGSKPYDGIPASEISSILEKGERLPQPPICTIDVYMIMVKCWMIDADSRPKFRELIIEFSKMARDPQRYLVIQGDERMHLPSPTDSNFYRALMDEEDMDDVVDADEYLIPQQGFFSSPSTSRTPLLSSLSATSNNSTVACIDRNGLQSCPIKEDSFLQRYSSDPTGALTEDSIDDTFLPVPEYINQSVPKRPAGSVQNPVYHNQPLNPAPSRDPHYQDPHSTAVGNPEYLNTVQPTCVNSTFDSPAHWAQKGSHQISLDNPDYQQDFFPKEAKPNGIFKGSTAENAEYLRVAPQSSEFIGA

Cytochrome P450 2D6 = Cytochrome P450 2D6 (Homo sapiens, UniProt P10635); settings: bti-tn-5b1-4; also: in other assays of this panel Not Active means under 50% inhibition at 10 µM
Chain of Cytochrome P450 2D6 (P10635 whole entry): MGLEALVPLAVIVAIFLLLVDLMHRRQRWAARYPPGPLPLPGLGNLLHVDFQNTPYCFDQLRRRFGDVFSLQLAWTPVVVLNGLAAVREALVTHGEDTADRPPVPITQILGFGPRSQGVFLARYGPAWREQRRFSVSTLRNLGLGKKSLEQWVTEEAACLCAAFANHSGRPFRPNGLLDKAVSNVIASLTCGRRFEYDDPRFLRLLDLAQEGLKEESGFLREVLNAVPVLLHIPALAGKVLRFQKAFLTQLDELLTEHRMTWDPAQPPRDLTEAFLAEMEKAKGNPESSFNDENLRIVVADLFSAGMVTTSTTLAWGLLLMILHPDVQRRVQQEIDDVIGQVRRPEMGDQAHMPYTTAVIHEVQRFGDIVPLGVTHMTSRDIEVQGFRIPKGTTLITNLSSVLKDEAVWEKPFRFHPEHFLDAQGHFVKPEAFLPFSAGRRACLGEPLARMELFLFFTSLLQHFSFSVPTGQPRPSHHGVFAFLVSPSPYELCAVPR

CC(C)CN(C[C@@H](O)[C@H](Cc1ccccc1)NC(=O)O[C@H]1CCOC1)S(=O)(=O)c1ccc(N)cc1
Not Active: IC50 [1] | IC50 [2] | IC50 [3] | IC50 [4] | IC50 (Adenosine receptor A2a) | IC50 [5]

c1ccc(Nc2ccc(Nc3ccccc3)cc2)cc1
Not Active: IC50 (Cytochrome P450 2D6) | Ki (Cytochrome P450 2D6) | IC50 [1] | IC50 [2] | IC50 [3] | IC50 [4] | IC50 (Adenosine receptor A2a) | IC50 [5]

COc1cc2c3cc1Oc1cc(ccc1O)C[C@@H]1c4c(cc(OC)c(O)c4Oc4ccc(cc4)C[C@@H]3N(C)CC2)CC[N+]1(C)C.[Cl-]
Not Active: IC50 (Cytochrome P450 2D6) | Ki (Cytochrome P450 2D6) | IC50 [1] | IC50 [2] | IC50 [3] | IC50 [4] | IC50 (Adenosine receptor A2a) | IC50 [5]

NC(=O)N1c2ccccc2CCc2ccccc21
Not Active: IC50 (Cytochrome P450 2D6) | Ki (Cytochrome P450 2D6) | IC50 [1] | IC50 [2] | IC50 [3] | IC50 [4] | IC50 (Adenosine receptor A2a) | IC50 [5]

O=C1CC[C@@H](N2C(=O)c3ccccc3C2=O)C(=O)N1
Not Active: IC50 (Cytochrome P450 2D6) | Ki (Cytochrome P450 2D6) | IC50 [1] | IC50 [2] | IC50 [3] | IC50 [4] | IC50 (Adenosine receptor A2a) | IC50 [5]

Cc1onc(O)c1CC(N)C(=O)O (racemic) [(R,S)-AMPA]
Not Active: IC50 (Cytochrome P450 2D6) | Ki (Cytochrome P450 2D6) | IC50 [1] | IC50 [2] | IC50 [3] | IC50 [4] | IC50 (Adenosine receptor A2a) | IC50 [5]

Cc1ccc2cc3c(ccc4ccccc43)c3c2c1CC3 [3-METHYLCHOLANTHRENE]
Not Active: IC50 (Cytochrome P450 2D6) | Ki (Cytochrome P450 2D6) | IC50 [1] | IC50 [2] | IC50 [3] | IC50 [4] | IC50 (Adenosine receptor A2a) | IC50 [5]

CC[C@@]1(O)C[C@H](O[C@H]2C[C@H](N(C)C)[C@H](O[C@H]3C[C@H](O)[C@H](O[C@H]4CCC(=O)[C@H](C)O4)[C@H](C)O3)[C@H](C)O2)c2c(cc3c(c2O)C(=O)c2c(O)cccc2C3=O)[C@H]1C(=O)OC [ACLARUBICIN]
Not Active: IC50 (Cytochrome P450 2D6) | Ki (Cytochrome P450 2D6) | IC50 [1] | IC50 [2] | IC50 [3] | IC50 [4] | IC50 (Adenosine receptor A2a) | IC50 [5]

Nc1nc2c(ncn2COCCO)c(=O)[nH]1 [ACYCLOVIR]
Not Active: IC50 (Cytochrome P450 2D6) | Ki (Cytochrome P450 2D6) | IC50 [1] | IC50 [2] | IC50 [3] | IC50 [4] | IC50 (Adenosine receptor A2a) | IC50 [5]

Cc1c(C)c2c(c(C)c1O)CC[C@@](C)(CCC[C@H](C)CCC[C@H](C)CCCC(C)C)O2 [ALPHA-TOCOPHEROL]
Not Active: IC50 (Cytochrome P450 2D6) | Ki (Cytochrome P450 2D6) | IC50 [1] | IC50 [2] | IC50 [3] | IC50 [4] | IC50 (Adenosine receptor A2a) | IC50 [5]

CN(C)c1nc(N(C)C)nc(N(C)C)n1 [ALTRETAMINE]
Not Active: IC50 [1] | IC50 [2] | IC50 [3] | IC50 [4] | IC50 (Adenosine receptor A2a) | IC50 [5]

Nc1c(Br)cc(Br)cc1CN[C@H]1CC[C@H](O)CC1 [AMBROXOL]
Not Active: IC50 [1] | IC50 [2] | IC50 [3] | IC50 [4] | IC50 (Adenosine receptor A2a) | IC50 [5]

NCCCCCC(=O)O [AMINOCAPROIC ACID]
Not Active: IC50 (Cytochrome P450 2D6) | Ki (Cytochrome P450 2D6) | IC50 [1] | IC50 [2] | IC50 [3] | IC50 [4] | IC50 (Adenosine receptor A2a) | IC50 [5]

CCC1(c2ccc(N)cc2)CCC(=O)NC1=O (centres undefined) [AMINOGLUTETHIMIDE]
Not Active: IC50 (Cytochrome P450 2D6) | Ki (Cytochrome P450 2D6) | IC50 [1] | IC50 [2] | IC50 [3] | IC50 [4] | IC50 (Adenosine receptor A2a) | IC50 [5]

Cc1ccc(/N=C/N(C)/C=N/c2ccc(C)cc2C)c(C)c1 [AMITRAZ]
Not Active: IC50 (Cytochrome P450 2D6) | Ki (Cytochrome P450 2D6) | IC50 [1] | IC50 [2] | IC50 [3] | IC50 [4] | IC50 (Adenosine receptor A2a) | IC50 [5]
